In PubChem BioAssay (NCI):
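Interpolation was linear, between the two tested concentrations surrounding the appropriate level; five concentrations were tested over 48 hours in 96-well plates. The concentration for 50% growth inhibition is given as GI50. At the TGI there is no net growth.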

Experiments:
Experiment in all cases: inhibition of tumour cell growth, NCI panel, 48 h
[1] = tested on: HCC-2998 colon
[2] = tested on: RPMI-8226 leukemia
[3] = tested on: RXF 393 renal
[4] = tested on: SF-268 CNS
[5] = tested on: SK-MEL-5 melanoma
[6] = tested on: U251 CNS
[7] = tested on: UACC-257 melanoma
[8] = tested on: UO-31 renal
[9] = tested on: OVCAR-4 ovarian
[10] = tested on: SR leukemia

Row | SMILES | GI50 [1] [µM] | TGI [1] [µM] | GI50 [2] [µM] | TGI [2] [µM] | GI50 [3] [µM] | TGI [3] [µM] | GI50 [4] [µM] | TGI [4] [µM] | GI50 [5] [µM] | TGI [5] [µM] | GI50 [6] [µM] | TGI [6] [µM] | GI50 [7] [µM] | TGI [7] [µM] | GI50 [8] [µM] | TGI [8] [µM] | TGI [9] [µM] | TGI [10] [µM] | GI50 [9] [µM] | GI50 [10] [µM]
1 | C=CCCCc1ccc(C(O)CCCCCCCCCCCC)o1 (configuration not stated) | 22.1 | 55 | 19.2 | 44.7 | 19.6 | 39.3 | 16.1 | 35 | 18.5 | 37.2 | 15.5 | 29.1 | 21.8 | 48.2 | 16.3 | 30.3 |  |  |  | 
2 | C=C1[C@@H]([C@@]2(C)C=CC(=O)C(C)(C)[C@@H]2CC(=O)OC)CC[C@@]2(C)C(c3ccoc3)OC(=O)[C@H]3O[C@]132 (some centres not stated) |  | > 100 |  |  |  |  |  | > 100 |  | > 100 |  | > 100 |  | > 100 |  | > 100 | > 100 |  |  | 
3 | COc1cc2c(c(OC3OC(CO)C(O)C(O)C3O)c1)C(=O)CC(c1ccc(O)cc1)O2 (configuration not stated) |  | > 100 |  | > 100 |  |  |  | > 100 |  | > 100 |  | > 100 |  | > 100 |  | > 100 | > 100 | > 100 |  | 
4 | Cc1cccc(Nc2cnc(N)nc2N)c1 |  | > 100 |  | > 100 |  | > 100 |  |  |  | > 100 |  | > 100 |  | > 100 |  | > 100 | > 100 |  |  | 
5 | O=C1CC(c2ccc(Cl)cc2)Oc2ccccc21 (configuration not stated) |  | 55 |  | 9.12 |  |  |  | > 100 |  | 27.3 |  | > 100 |  | > 100 |  | > 100 | > 100 | 28 |  | 
6 | COC(=O)C1=C(c2ccc3c(c2)OCO3)OC(c2cc(OC)c(OC)c(OC)c2)C1 (configuration not stated) |  | > 100 |  | > 100 |  |  |  | > 100 |  | 60.3 |  | > 100 |  | > 100 |  | > 100 | > 100 | > 100 |  | 
7 | Cc1cccc2nc3cccc(C(=O)NCCN(C)C)c3nc12 |  | 2.27 |  |  |  | 2.99 |  | 9.2 |  | 1.97 |  | 4.61 |  | 2.61 |  | 1.56 | 4.84 |  |  | 
8 | C/C=C(\C)C(=O)N[C@H]1C(O)C[C@]2(C)C3CC[C@@]4(C)C(CC[C@@H]4C(C)N(C)C)C3CCC2C1O (some centres not stated) | 4.16 | 9.21 | 5.95 | 25.5 | 7.53 | 23.2 | 2.8 | 8.94 | 1.65 | 3.46 | 4.35 | 27.6 | 3.22 | 9.75 | 2.03 | 5.73 | > 100 |  | 8.52 | 
9 | CC(Br)C(=O)Nc1ccc(C(=O)O)c(O)c1 (configuration not stated) |  |  |  | > 100 |  | > 100 |  | > 100 |  | > 100 |  | 62.8 |  | > 100 |  | > 100 | > 100 | > 100 |  | 
10 | COC(=O)CCC(=O)NC1C2CC3CC(C2)CC1C3 (configuration not stated) |  | > 100 |  | > 100 |  | > 100 |  | > 100 |  | > 100 |  | > 100 |  | > 100 |  | > 100 | > 100 |  |  | 
11 | COc1ccc(OC)c(Nc2nc(-c3c(C)nc4sccn34)cs2)c1 | > 100 | > 100 | 8.91 | > 100 | 36.3 | > 100 | 29.7 | > 100 | 34.9 | > 100 | > 100 | > 100 | > 100 | > 100 | 29 | > 100 | > 100 |  | 14.2 | 
12 | CN(/N=N/c1nc(OCc2ccccc2)c2[nH]cnc2n1)C(=O)Oc1ccc([N+](=O)[O-])cc1 |  |  | 9.12 | > 50 |  |  | 9.44 | 29.5 | 6.89 | 16.3 | 7.51 | 15.3 | 39 | > 50 | 6.58 | 13.9 | > 50 | > 50 | 22.8 | 26.1
13 | COc1ccc(C2=CC(c3ccc(OC)c(OC)c3)c3c(c4ccccc4oc3=O)O2)cc1OC (configuration not stated) | 1.37 | 4.97 | 1.32 | 16.7 |  |  | 3.46 | > 100 | 0.363 | > 25.4 | 3.19 | > 100 | 1.13 | > 100 | 1.58 | > 100 | > 100 | > 100 | 3.85 | 0.498
14 | CC1=CC(=O)N(c2c(C)cccc2Cl)C(C)N1 (configuration not stated) |  | > 100 |  |  |  | > 100 |  | > 100 |  | > 100 |  | > 100 |  | > 100 |  | > 100 | > 100 |  |  | 
